# Reference: BindingDB's records for doi:10.1021/jm990095j (Medivir, 1999)
# Assays:
# Assay in all cases: HIV-1 RT Assay
# [1] = target: T1, Gag-Pol polyprotein [588-1027]/[588-1147] (Human immunodeficiency virus 1, UniProt P04585)
# T1 construct: 588-1027; 588-1147
# [2] = target: T2, Gag-Pol polyprotein [588-1027,K690N]/[588-1147,K690N] (Human immunodeficiency virus 1, UniProt P04585, K690N)
# T2 construct: 588-1027; 588-1147
# [3] = target: T3, Gag-Pol polyprotein [588-1127,Y768C]/[588-1147,Y768C] (Human immunodeficiency virus 1, UniProt P04585, Y768C)
# T3 construct: 588-1127; 588-1147
compound,measurement,setting,value
CN(C)c1ccc(F)c(CCNC(=O)Nc2ccc(Br)cn2)c1F,IC50,"[1]; pH 7.8, 37 °C",25 nM
same,IC50,"[2]; pH 7.8, 37 °C",> 2500 nM
CCOc1ccc(F)c(CCNC(=O)Nc2ccc(Br)cn2)c1Cl,IC50,"[1]; pH 7.8, 37 °C",4 nM
same,IC50,"[2]; pH 7.8, 37 °C",> 2400 nM
"COc1ccc(OC)c(CCNC(=O)Nc2ccc(Cl)cn2)c1F [1-(5-chloropyridin-2-yl)-3-[2-(2-fluoro-3,6-dimethoxyphenyl)ethyl]urea]",IC50,"[1]; pH 7.8, 37 °C",3 nM
COc1c(C(C)=O)ccc(F)c1CCNC(=O)Nc1ccc(Cl)cn1 [1-(5-chloropyridin-2-yl)-3-[2-(3-acetyl-6-fluoro-2-methoxyphenyl)ethyl]urea],IC50,"[2]; pH 7.8, 37 °C",> 2700 nM
COc1ccc(C(C)=O)c(F)c1CCNC(=O)Nc1ccc(Cl)cn1 [N-[2-(3-Acetyl-2-fluoro-6-methoxyphenethyl)]-N-[2-(5-chloropyridy)]urea],IC50,"[2]; pH 7.8, 37 °C",> 2700 nM
O=C(Nc1ccc(Cl)cn1)NC1CC1c1c(F)ccc(O)c1Cl (stereo not drawn) [N-[cis-2-(2-Chloro-6-fluoro-3-hydroxyphenyl)cyclopropyl]-N-[2-(5-chloropyridyl)]urea],IC50,[2],> 2700 nM
CCC(=O)c1ccc(F)c(C2CC2NC(=O)Nc2ccc(C#N)cn2)c1O (stereo not drawn) [N-[cis-2-(6-Fluoro-2-hydroxy-3-propionylphenyl)cyclopropyl]-N-[2-(5-cyanopyridyl)]urea],IC50,[2],97 nM
"COc1ccc2c(c1)N(C(=O)OC(C)C)[C@@H](CSC)C(=S)N2 [propan-2-yl (2S)-7-methoxy-2-[(methylsulfanyl)methyl]-3-sulfanylidene-1,2,3,4-tetrahydroquinoxaline-1-carboxylate]",IC50,[3],9 nM
same,IC50,[1],8 nM
same,IC50,[2],56 nM
